The values that follow come from BindingDB's records for patent US10100058 (Gilead Sciences, 2018).

The structures appear in SMILES notation.

As a reminder, the IC50 is the concentration at which inhibition is half-maximal.

For this assay, the target named is Calcium/calmodulin-dependent protein kinase type II subunit delta (Homo sapiens, UniProt Q13557). The assay is described as follows: CaMKII delta Biochemical Assay. The procedure: The biochemical activity of recombinant CaMKIIδ was measured by monitoring the phosphorylation of a target peptide using Homogenous Time Resolved Fluorescence (HTRF) technology from CisBio Bioassays.
Chain of Calcium/calmodulin-dependent protein kinase type II subunit delta (Q13557 whole entry): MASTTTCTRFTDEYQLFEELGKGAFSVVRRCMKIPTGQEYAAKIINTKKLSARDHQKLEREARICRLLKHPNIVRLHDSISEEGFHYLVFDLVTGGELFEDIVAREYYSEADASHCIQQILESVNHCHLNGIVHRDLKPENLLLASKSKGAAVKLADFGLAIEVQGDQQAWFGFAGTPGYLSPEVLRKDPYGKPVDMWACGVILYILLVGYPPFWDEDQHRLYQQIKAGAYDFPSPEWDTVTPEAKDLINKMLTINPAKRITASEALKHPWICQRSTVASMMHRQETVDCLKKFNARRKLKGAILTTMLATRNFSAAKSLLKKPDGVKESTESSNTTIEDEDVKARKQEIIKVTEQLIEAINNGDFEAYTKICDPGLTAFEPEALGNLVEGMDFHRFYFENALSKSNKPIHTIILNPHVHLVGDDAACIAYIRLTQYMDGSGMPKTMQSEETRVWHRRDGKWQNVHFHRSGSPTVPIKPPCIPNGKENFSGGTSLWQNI
In the case of `CCC(N)CNC(=O)c1ccnc(-c2cnn3ccc(-c4cccs4)nc23)c1` (stereo not drawn) [US10100058, Example 25], the IC50 stood at 8.62 nM.
The same measure for `CCN(CC)[C@@H](CO)CNC(=O)c1ccnc(-c2cnn3ccc(-c4ccccc4)nc23)c1` [US10100058, Example 58]: 3.35 nM; for `CC(C)(N)CNC(=O)c1ccnc(-c2cnn3ccc(-c4ccccc4)nc23)c1` [US10100058, Example 64]: 99.9 nM.
The result for `CCN(CC)[C@@H](C)CNC(=O)c1cc(-c2cnn3ccc(-c4cccs4)nc23)nc(N2CC(NS(=O)(=O)Cc3ccon3)C2)c1` [US10100058, Example 175] reads 0.24 nM; that for `CCN(CC)[C@@H](C)CNC(=O)c1cc(-c2cnn3ccc(-c4cccs4)nc23)nc(N2CC[C@H]2C(=O)NCCO)c1` [US10100058, Example 297], 0.33 nM.
As to `CN(CCn1ccnc1)c1cc(C(=O)N2CC3CCC(C2)NC3)cc(-c2cnn3ccc(-c4cccs4)nc23)n1` (stereo not drawn) [US10100058, Example 321], the IC50 was found to be 9.11 nM.
Regarding `COC1CN(c2cc(C(=O)N3CC[C@H](N)C3)cc(-c3cnn4ccc(-c5cccs5)nc34)n2)C1` [US10100058, Example 327], the IC50 amounted to 9.25 nM.
Take `CCN(CC)[C@@H](C)CNC(=O)c1cc(OCCN(C)C)nc(-c2cnn3ccc(-c4cccs4)nc23)c1` [US10100058, Example 347]: the IC50 came out at 0.1 nM.
